In paper PMC4468202, “Improved Visualization and Specific Binding for Metabotropic Glutamate Receptor Subtype 1 (mGluR1) Using [^11C]ITMM with Ultra-High Specific Activity in Small-Animal PET” (PLoS ONE, 2015):

Biological target: mGluR1 (Rattus norvegicus, UniProt P23385)
Assay: Estimation of equilibrium state from tissue-to-plasma concentration ratios C t'(t)/C P'(t)
Assay type: in vivo
Parameters: from tissue; host or cells: living SD rat brain (in vivo PET)
Experimental: Estimations of the equilibrium state of [^11C]ITMM in each brain region were obtained using averaged plasma input functions and averaged tissue TACs. Theoretical radioactive concentrations in each brain region (C t ’) and the plasma input function of [^11C]ITMM (C P ’) were estimated using averaged measurements extracted between 5 and 90 min after the injection and subjected to three exponential least square fitting [Radioactivity (t) = A*exp(-at) + B*exp(-bt) + C*exp(-ct)].
The estimations over 90 min after the injection were calculated by extrapolating based on the equation as described above. […]

Chain of mGluR1 (P23385 19-1199): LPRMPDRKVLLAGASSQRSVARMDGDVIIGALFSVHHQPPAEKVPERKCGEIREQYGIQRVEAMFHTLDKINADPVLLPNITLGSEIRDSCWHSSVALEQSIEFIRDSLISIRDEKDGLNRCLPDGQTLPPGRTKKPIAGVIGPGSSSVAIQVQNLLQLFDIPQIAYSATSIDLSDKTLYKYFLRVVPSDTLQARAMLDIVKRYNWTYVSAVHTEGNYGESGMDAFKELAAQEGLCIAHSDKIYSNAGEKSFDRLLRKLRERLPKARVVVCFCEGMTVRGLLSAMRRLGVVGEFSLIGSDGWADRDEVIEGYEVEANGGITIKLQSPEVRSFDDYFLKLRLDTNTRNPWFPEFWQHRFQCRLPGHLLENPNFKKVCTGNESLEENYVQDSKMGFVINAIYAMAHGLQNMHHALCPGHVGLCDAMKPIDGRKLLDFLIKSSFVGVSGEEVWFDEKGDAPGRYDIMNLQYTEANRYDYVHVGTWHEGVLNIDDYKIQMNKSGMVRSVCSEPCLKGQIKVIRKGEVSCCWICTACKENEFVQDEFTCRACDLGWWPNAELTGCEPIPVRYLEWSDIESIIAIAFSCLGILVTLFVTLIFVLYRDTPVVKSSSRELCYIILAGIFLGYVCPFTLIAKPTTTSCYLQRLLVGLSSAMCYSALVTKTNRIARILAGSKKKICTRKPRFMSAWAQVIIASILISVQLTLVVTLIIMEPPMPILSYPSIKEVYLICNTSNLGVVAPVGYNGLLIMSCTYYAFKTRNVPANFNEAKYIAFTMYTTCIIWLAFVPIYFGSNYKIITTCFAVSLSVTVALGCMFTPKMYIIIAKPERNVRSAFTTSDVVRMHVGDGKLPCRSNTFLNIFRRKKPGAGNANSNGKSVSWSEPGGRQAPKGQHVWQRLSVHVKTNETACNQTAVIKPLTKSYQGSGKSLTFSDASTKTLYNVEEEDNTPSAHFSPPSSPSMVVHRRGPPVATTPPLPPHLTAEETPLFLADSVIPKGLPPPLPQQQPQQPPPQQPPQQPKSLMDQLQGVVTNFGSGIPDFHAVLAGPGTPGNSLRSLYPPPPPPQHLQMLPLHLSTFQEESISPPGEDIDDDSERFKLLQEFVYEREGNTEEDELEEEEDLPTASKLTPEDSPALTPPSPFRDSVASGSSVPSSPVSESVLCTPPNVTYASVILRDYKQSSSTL

CC(C)Nc1cc(-c2csc(N(C)C(=O)c3ccc(O[11CH3])cc3)n2)ncn1 [[^11C]ITMM, N-[4-[6-(isopropylamino)pyrimidin-4-yl]-1,3-thiazol-2-yl]-4-[^11C]methoxy-N-methyl-benzamide]
bindings reached, of the equilibrium state (both SA conditions, all brain regions, 90 min PET): 80–98% | equilibrium times (both SA conditions, all brain regions, after the injection): 100 to 150 min | estimated equilibrium time (cerebellum, conventional SA): 150 min | uptake of radioactivity reached, of equilibrium state (cerebellum, conventional SA, 90 min PET): 80% | estimated equilibrium time (cerebellum, ultra-high SA): 150 min | uptake of radioactivity reached, of equilibrium state (cerebellum, ultra-high SA, 90 min PET): 82% | estimated equilibrium time (cingulate cortex, conventional SA): 100 min | uptake of radioactivity reached, of equilibrium state (cingulate cortex, conventional SA, 90 min PET): 96% | estimated equilibrium time (cingulate cortex, ultra-high SA): 120 min | uptake of radioactivity reached, of equilibrium state (cingulate cortex, ultra-high SA, 90 min PET): 91% | estimated equilibrium time (hippocampus, conventional SA): 120 min | uptake of radioactivity reached, of equilibrium state (hippocampus, conventional SA, 90 min PET): 93% | estimated equilibrium time (hippocampus, ultra-high SA): 130 min | uptake of radioactivity reached, of equilibrium state (hippocampus, ultra-high SA, 90 min PET): 89% | estimated equilibrium time (pons, conventional SA): 110 min | uptake of radioactivity reached, of equilibrium state (pons, conventional SA, 90 min PET): 94% | estimated equilibrium time (pons, ultra-high SA): 100 min | uptake of radioactivity reached, of equilibrium state (pons, ultra-high SA, 90 min PET): 98% | estimated equilibrium time (striatum, conventional SA): 120 min | uptake of radioactivity reached, of equilibrium state (striatum, conventional SA, 90 min PET): 93% | estimated equilibrium time (striatum, ultra-high SA): 130 min | uptake of radioactivity reached, of equilibrium state (striatum, ultra-high SA, 90 min PET): 90% | estimated equilibrium time (substantia nigra, conventional SA): 110 min | uptake of radioactivity reached, of equilibrium state (substantia nigra, conventional SA, 90 min PET): 94% | estimated equilibrium time (substantia nigra, ultra-high SA): 100 min | uptake of radioactivity reached, of equilibrium state (substantia nigra, ultra-high SA, 90 min PET): 98% | estimated equilibrium time (thalamus, conventional SA): 120 min | uptake of radioactivity reached, of equilibrium state (thalamus, conventional SA, 90 min PET): 91% | estimated equilibrium time (thalamus, ultra-high SA): 140 min | uptake of radioactivity reached, of equilibrium state (thalamus, ultra-high SA, 90 min PET): 87%
